How the values were obtained:
[1] = tested on: mice; experiment: Analgesic, anti-inflammatory activity test (formalin test); type: in vivo; conditions: male ICR mice, 1.0% formalin (20 μl injected), sample 40 mg/kg intraperitoneal, 15 min before stimulation, n=10, average value±standard error; for 1st phase response (0 to 10 min), licking time: control 121.33 ± 5.32; for 2nd phase response (10 to 30 min), licking time: control 183.51 ± 20.10
Experimental: An analgesic, anti-inflammatory activity test (the so-called “formalin test”) was carried out using samples 1 to 9 as test drugs.
A 1.0% formalin solution (20 μl) was injected as a stimulant into the hypoderm of the planta depis in the hind leg of mice (five-week-old male ICR mice which, after purchase, had been subjected to quarantine and acclimation for one week). An act of licking the hind leg by the mice for alleviating the pain was then successively measured with a stopwatch 5 min by 5 min for 30 min. In this case, for each of the test drugs (samples 1 to 9), a suspension corresponding to a dose of 40 mg/kg was prepared using an aqueous solution of 0.5% polyoxyethylene sorbitan monooleate (Tween 80; a product of Atlas). The suspension (100 μl) for each sample was intraperitoneally administered to the mice 15 min before the stimulation. For a control group, the same volume of 0.5% Tween 80 was intraperitoneally administered to the mice.
It is generally known that the formalin test as described above causes a biphasic response, that is, the following first-phase response and second-phase response.
The first-phase response refers to a response indicated by pain in a 0 to 10 min period after the stimulation with formalin, that is, a response indicated by pain caused by direct stimulation of the sensory nerve at its end upon the injection of formalin. At the present time, only narcotic analgesics such as morphine are known to have inhibitory activity against this first-phase response. On the other hand, the second-phase response refers to a response indicated by pain in a 10 to 30 min period after the stimulation with formalin, that is, a response indicated by pain attributable to inflammation caused upon the injection of formalin. This response can be inhibited by conventional analgesics such as aspirin.
The analgesic, anti-inflammatory activity was evaluated in two separate phases, a phase from 0 min to 10 min after the administration and a phase from 10 min to 30 min after the administration. For each of the phases, the total number of seconds for which the mouse licked the hind leg (licking time) was calculated, and this value was compared with the value for the control.

[2] = tested on: rats; experiment: Acute gastric ulcer test; type: in vivo
Experimental: An acute gastric ulcer test was carried out using sample 2 and indometacin as test drugs. […] By contrast, for sample 2, the same test was carried out, except that, instead of indometacin, sample 2 was orally administered at a dose of 10 to 300 mg/kg.

In the case of `COC(=O)C1C(c2ccc(O)cc2)C(C(=O)OC)C1c1ccc(O)cc1` (stereo not drawn) [Sample 8, dimethyl 4,4′-dihydroxy-α-truxillate], the “1st phase response (0 to 10 min), licking time” value (“1st phase response (0 to 10 min)” below) [1] is reported as 89.65 ± 4.67 s and the “2nd phase response (10 to 30 min), licking time” value (“2nd phase response” for short) [1] is reported as 122.70 ± 7.16 s.
In the case of `O=C(O)C1C(C(=O)O)C(c2ccc(Cl)cc2)C1c1ccc(Cl)cc1` (stereo not drawn) [Sample 6, 4,4′-dichloro-β-truxinic acid], the “1st phase response (0 to 10 min)” value [1] is reported as 59.37 ± 6.04 s and the “2nd phase response” value [1] is reported as 34.44 ± 9.13 s.
For `O=C(O)C1C(C(=O)O)C(c2ccccc2)C1c1ccccc1` (stereo not drawn) [Sample 4, β-truxinic acid], the “1st phase response (0 to 10 min)” value [1] was 59.40 ± 7.19 s and the “2nd phase response” value [1] was 74.75 ± 11.94 s.
`COc1ccc2c(c1)c(CC(=O)O)c(C)n2C(=O)c1ccc(Cl)cc1` [indometacin, reference compound] was tested, and the “occurrence of a gastric ulcer” value ([2]; orally administered at a dose of not less than 50 mg/kg, seven hr after the administration) was “the occurrence of a gastric ulcer was clearly learned”.
`O=C(O)C1C(c2ccc(O)cc2)C(C(=O)O)C1c1ccc(O)cc1` (stereo not drawn) [Sample 2, 4,4′-dihydroxy-α-truxillic acid] was tested, and the “occurrence of a gastric ulcer” value ([2]; orally administered at a dose of 10 to 300 mg/kg, same test as for indometacin) was “an ulcer did not occur at all”, the “1st phase response (0 to 10 min)” value [1] was 102.34 ± 4.09 s and the “2nd phase response” value [1] was 7.12 ± 3.29 s.
